The term pIC50 denotes the IC50 on a negative log10 scale, so that one unit is a factor of ten. As usually defined, the solubility is the concentration that dissolves in the medium under given conditions. The T/C is the ratio of treated to control.

pIC50: −log10 of the molar value. Calls of active or inactive are those of the source. The calls are words filed in the database; no cut-off is given here. Bounds are passed on as bounds.

The nature of data set [1]: cells. Particulars: Homo sapiens, HeLa, 48 h.
Data set [2] can be described thus: Solubility of the compound in pH 7.9 Tris/glycine/SDS buffer at 50 uM. Particulars: pH 7.9, 50 µM. The data set is classed as physicochemical.
Data set [3] is described as follows: Antiproliferative activity against human BGC823 cells after 48 hrs by MTT assay. Format: functional, cell-based. Conditions: BGC-823, 48 h.
A short description of data set [4]: cells. Conditions: Homo sapiens, HepG2, 48 h.
A short description of data set [5]: cells. Particulars: Homo sapiens, A549, 48 h.
Data set [6] is described as follows: Cell cycle arrest in human A549 cells assessed as accumulation at G1 phase at 0.5 uM after 24 hrs by propidium iodide staining based flow cytometric analysis (reference value: 46.14%). The data set is classed as functional. (In general: In flow cytometry, cells or beads pass a laser one at a time.)
A short description of data set [7]: Cell cycle arrest in human A549 cells assessed as accumulation at G2 phase at 0.5 uM after 24 hrs by propidium iodide staining based flow cytometric analysis (reference value: 22.51%). Format: functional.
Data set [8] can be described thus: Cell cycle arrest in human A549 cells assessed as accumulation at S phase at 0.5 uM after 24 hrs by propidium iodide staining based flow cytometric analysis (reference value: 26.40%). Format: functional.
Data set [9] is described as follows: Solubility of the compound in Tris/glycine/SDS buffer at pH 7.9. The data set is classed as physicochemical.
Data set [10] deals with T1, DNA topoisomerase 1 (Homo sapiens) (UniProt P11387).
T1 sequence (whole entry): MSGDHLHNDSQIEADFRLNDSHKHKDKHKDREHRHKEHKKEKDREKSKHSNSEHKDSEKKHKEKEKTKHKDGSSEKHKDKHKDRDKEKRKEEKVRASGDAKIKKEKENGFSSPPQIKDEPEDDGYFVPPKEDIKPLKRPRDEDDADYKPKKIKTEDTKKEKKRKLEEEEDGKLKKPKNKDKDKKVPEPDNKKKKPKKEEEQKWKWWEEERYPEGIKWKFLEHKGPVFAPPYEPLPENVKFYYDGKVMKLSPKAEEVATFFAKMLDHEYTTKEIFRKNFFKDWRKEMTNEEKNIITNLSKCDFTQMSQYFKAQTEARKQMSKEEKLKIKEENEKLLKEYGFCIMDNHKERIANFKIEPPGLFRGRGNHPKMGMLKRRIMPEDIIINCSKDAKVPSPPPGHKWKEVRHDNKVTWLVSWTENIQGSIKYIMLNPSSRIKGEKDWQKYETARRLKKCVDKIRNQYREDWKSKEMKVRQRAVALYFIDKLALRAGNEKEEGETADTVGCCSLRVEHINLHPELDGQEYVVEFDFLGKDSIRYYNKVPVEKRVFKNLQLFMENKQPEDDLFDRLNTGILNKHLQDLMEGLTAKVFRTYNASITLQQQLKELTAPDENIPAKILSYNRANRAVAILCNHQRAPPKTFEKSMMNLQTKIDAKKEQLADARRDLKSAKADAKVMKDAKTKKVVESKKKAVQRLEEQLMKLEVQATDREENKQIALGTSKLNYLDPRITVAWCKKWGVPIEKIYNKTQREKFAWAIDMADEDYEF
The experiment in a line: Inhibition of DNA topoisomerase 1 (unknown origin)-mediated relaxation of supercoiled pBR322 plasmid DNA at 100 uM after 30 mins by agarose gel electrophoresis.

Data set [11] is described as follows: Antitumor activity against human A549 cells xenografted in BALB/c nude mouse assessed as reduction in tumor volume at 20 mg/kg, iv administered once every 3 days measured on day 21 post dose. The data set is classed as functional. A general note: In xenograft studies the graft and the host belong to different species.
A short description of data set [12]: Antitumor activity against human A549 cells xenografted in BALB/c nude mouse assessed as reduction in tumor volume at 20 mg/kg, iv administered once every 3 days measured on day 18 post dose. Format: functional.
The nature of data set [13]: Antitumor activity against human A549 cells xenografted in BALB/c nude mouse assessed as reduction in tumor volume at 20 mg/kg, iv administered once every 3 days measured on day 12 post dose. Format: functional.
A short description of data set [14]: Antitumor activity against human A549 cells xenografted in BALB/c nude mouse assessed as reduction in tumor volume at 20 mg/kg, iv administered once every 3 days measured on day 23 post dose. Format: functional.
Data set [15] has as its system Mus musculus. Put plainly: Toxicity in BALB/c nude mouse xenografted with human A549 cells assessed as change in body weight at 20 mg/kg, iv administered once every 3 days for 23 days measured twice per week during compound dosing. Format: organism-based. Particulars: in vivo.
The subject of data set [16] is Mus musculus. The experiment in a line: Toxicity in BALB/c nude mouse xenografted with human A549 cells assessed as mortality at 20 mg/kg, iv administered once every 3 days for 23 days. Particulars: in vivo. Format: organism-based.
Data set [17] in a line: Antitumor activity against human A549 cells xenografted in BALB/c nude mouse assessed as reduction in tumor volume at 20 mg/kg, iv administered once every 3 days measured on day 15 post dose. Format: functional.
Data set [18] can be described thus: Antitumor activity against human A549 cells xenografted in BALB/c nude mouse assessed as reduction in tumor volume at 20 mg/kg, iv administered once every 3 days measured on day 9 post dose. The data set is classed as functional.
The nature of data set [19]: Antitumor activity against human A549 cells xenografted in BALB/c nude mouse assessed as reduction in tumor volume at 20 mg/kg, iv administered once every 3 days measured on day 3 post dose. The data set is classed as functional.
Data set [20] in a line: Antitumor activity against human A549 cells xenografted in BALB/c nude mouse assessed as tumor growth inhibition at 20 mg/kg, iv administered once every 3 days for 23 days relative to control. The data set is classed as functional. Conditions: read-out: TGI.
A short description of data set [21]: Antitumor activity against human A549 cells xenografted in BALB/c nude mouse assessed as reduction in tumor volume at 20 mg/kg, iv administered once every 3 days measured on day 6 post dose. Format: functional.

`CCn1cc(-c2nc3ccc([N+](=O)[O-])cc3o2)c(=O)c2cc(F)c(N3CCNC(C)C3)c(F)c21` (configuration not stated): the pIC50 in data set [1] is 5.53; in data set [3] it was 5.56; in [4], 5.58; in [5], 5.83. Moreover, the solubility result in [2] is given as “Insoluble”.

As for `CC[C@@]1(O)C(=O)OCc2c1cc1n(c2=O)Cc2cc3ccccc3nc2-1` [CAMPTOTHECIN], the negative logarithm of the IC50 (pIC50) was 5.85 in data set [1], 5.90 in [3], 5.82 in data set [4] and 6.34 in [5]. The values for the Activity in data set [6], in [7] and in [8] were 33.2%, 11.3% and 48.1%, respectively.

On to `COc1ccc(-c2cn(C3CC3)c3cc(N4CCNCC4)c(F)cc3c2=O)cc1`, for which the pIC50 in data set [1] was 4.78; in [3] it was 4.72; in data set [4], 4.68; in data set [5] it was 5.73. This molecule registered a solubility in [9] of over 400 µM. Also, the inhibition result in data set [10] is “Active”.

For `CCn1cc(-c2ccc(Cl)cc2)c(=O)c2cc(F)c(N3CCNCC3)cc21`, the pIC50 in data set [1] is 4.81; in data set [3], 4.84; in data set [4] it was 4.62; in data set [5] it was 5.90.

`CCn1cc(-c2cccc(Cl)c2)c(=O)c2cc(F)c(N3CCNCC3)cc21`: the pIC50 in [1] was 4.79; in data set [3], 4.74; in [4], 4.82; in data set [5], 6.11.

Consider `COc1cccc(-c2cn(C3CC3)c3cc(N4CCNCC4)c(F)cc3c2=O)c1`, for which the negative-log IC50 (pIC50) in data set [1] is 6.04; in data set [3], 6.16; in data set [4], 6.04; in data set [5], 6.92. Moreover, the T/C is 71.52% in [11]; 68.69% in [12]; 85.88% in [13]; 64.72% in data set [14]; 73.12% in data set [17]; 118.67% in data set [18]. Further, the T/C in data set [19] stood at 140.57%; in data set [21] it was 114.41%. Also, the Activity in data set [6] is 48.2%; in data set [7], 11.8%; in data set [8], 32.2%; in data set [15], “Non-Toxic”; in data set [16], “Non-Toxic”. For the same molecule, in data set [9], the solubility is over 400 µM. Also, the inhibition result in [10] was “Active”. For the same molecule, the inhibition in vivo at 20 mg/kg in data set [20] amounted to 42.8%.

Turning to `O=c1c(-c2ccc(F)cc2)cn(C2CC2)c2cc(N3CCNCC3)c(F)cc12`, the negative-log IC50 (pIC50) is 4.83 in data set [1], 4.82 in [3], 4.98 in data set [4] and 5.77 in [5]. Also, the solubility in [9] is over 400 µM. In addition, in [10], the inhibition result is “Active”.

On to `CCn1cc(-c2ccc(C#N)cc2)c(=O)c2cc(F)c(N3CCNCC3)cc21`, for which the negative logarithm of the IC50 (pIC50) in [1] is 4.83; in data set [3], 4.73; in data set [4], 4.90; in data set [5] it was 5.96.

Consider `CC[C@@]1(O)C(=O)OCc2c1cc1n(c2=O)Cc2cc3cc(O)ccc3nc2-1` [HYDROXYCAMPTOTHECIN], for which the T/C in data set [11] is recorded as 20%; in [12], 23.92%; in [13] it was 29.44%; in [14], 21.68%; in data set [17], 27.97%; in [18] it was 54.55%. Also, the T/C is on record as 91.99% in data set [19] and 68.37% in data set [21]. For the same molecule, the Activity result in data set [15] and in data set [16] was “Toxic” in each case.

With `CCn1cc(-c2ccc(OC)cc2)c(=O)c2cc(F)c(N3CCNCC3)cc21`, the pIC50 was 4.16 in data set [1], 4.34 in [3], 4.24 in data set [4] and 4.93 in [5].

`O=c1c(-c2ccc(Cl)cc2)cn(C2CC2)c2cc(N3CCNCC3)c(F)cc12`: the pIC50 was 5.03 in data set [1], 4.89 in [3], 5.10 in [4] and 6.19 in [5]. Further, the solubility in data set [9] is over 400 µM. In data set [10], the inhibition result was “Active”.

As for `COc1cccc(-c2cn(C3CC3)c3cc(N4CCN(C)CC4)c(F)cc3c2=O)c1`, the pIC50 in [1] was 4.83; in [3] it was 4.68; in [4], 4.60; in data set [5] it was 5.95.

Take `CCn1cc(-c2ccccc2)c(=O)c2cc(F)c(N3CCNCC3)cc21`: the pIC50 in data set [1] is 4.45; in data set [3], 4.12; in data set [4], 4.52; in data set [5] it was 4.96.

On to `O=c1c(-c2cccc(Cl)c2)cn(C2CC2)c2cc(N3CCNCC3)c(F)cc12`, for which the pIC50 in data set [1] was 6.05; in data set [3] it was 6.21; in data set [4], 6.07; in data set [5], 6.96. For the same molecule, the T/C in data set [11] came out at 73.07%; in data set [12], 62.96%; in data set [13], 58.03%; in data set [14], 74.32%; in data set [17], 76.4%; in data set [18], 85.54%. In addition, the figures for the T/C in data set [19] and in [21] were 87.18% and 95.42%, respectively. Besides, the Activity in data set [6] is 44%; in [7], 17.7%; in [8], 31.2%; in [15] it was “Non-Toxic”; in [16] it was “Non-Toxic”. The solubility in data set [9] is over 400 µM. Further, in data set [10], the inhibition result is “Active”. Moreover, the inhibition in vivo at 20 mg/kg in [20] worked out at 29.2%.

For the molecule `CCn1cc(-c2ccc(F)cc2)c(=O)c2cc(F)c(N3CCNCC3)cc21`, the pIC50 was 4.22 in [1], 4.16 in data set [3], 4.25 in [4] and 4.94 in data set [5].

Take `CN1CCN(c2cc3c(cc2F)c(=O)c(-c2cccc(Cl)c2)cn3C2CC2)CC1`: the negative logarithm of the IC50 (pIC50) is 4.80 in data set [1], 4.70 in [3], 4.58 in data set [4] and 5.87 in data set [5].

On to `CCn1cc(-c2cccc(F)c2)c(=O)c2cc(F)c(N3CCNCC3)cc21`, for which the pIC50 in data set [1] was 4.66; in [3], 4.56; in data set [4] it was 4.56; in [5], 5.51.

On to `O=c1c(-c2cccc(F)c2)cn(C2CC2)c2cc(N3CCNCC3)c(F)cc12`, for which the pIC50 in [1] is 5.04; in data set [3], 4.92; in [4] it was 5.13; in data set [5], 5.96. In [9], the solubility is over 400 µM. Also, in [10], the inhibition entry is “Active”.

As for `CCn1cc(-c2cccc(OC)c2)c(=O)c2cc(F)c(N3CCNCC3)cc21`, the negative-log IC50 (pIC50) in data set [1] is 4.91; in data set [3] it was 4.83; in [4], 4.89; in [5], 6.10.

Consider `O=c1c(-c2ccccc2)cn(C2CC2)c2cc(N3CCNCC3)c(F)cc12`, for which the negative logarithm of the IC50 (pIC50) in data set [1] was 5.00; in data set [3] it was 5.10; in [4], 5.06; in data set [5], 6.30. The same molecule had a solubility in [9] of over 400 µM. Further, the inhibition entry in [10] was “Active”.
